In BindingDB's records for patent USRE47740 (Syntrix Biosystems Inc., 2019):

Molecular target: T1, C-X-C chemokine receptor type 2 (Homo sapiens, UniProt P25025)
T1 sequence (P25025 whole entry): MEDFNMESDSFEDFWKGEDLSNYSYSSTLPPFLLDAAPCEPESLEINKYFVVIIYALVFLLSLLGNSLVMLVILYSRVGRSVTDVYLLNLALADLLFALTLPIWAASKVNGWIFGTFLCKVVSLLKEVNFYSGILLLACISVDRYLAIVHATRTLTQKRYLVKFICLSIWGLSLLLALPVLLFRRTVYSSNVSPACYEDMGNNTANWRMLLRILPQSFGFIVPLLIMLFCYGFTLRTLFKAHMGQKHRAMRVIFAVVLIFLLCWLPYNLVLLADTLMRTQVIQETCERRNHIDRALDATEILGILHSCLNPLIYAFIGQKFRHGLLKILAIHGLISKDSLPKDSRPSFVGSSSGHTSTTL
Experiment: In Vitro Inhibition of Intracellular Calcium Release
Experimental: Briefly, human neutrophils were suspended in HBSS− (without Ca2+ and Mg2+) containing 10 mM HEPES and FLIPR Calcium 3 dye (3.1×10^7 cells in total volume 1.7 mL). Cells were aliquoted (200 μL of the cell suspension per tube, 8 tubes total) and 2 μL of compound 9 (with appropriate dilutions) were added to each of 6 tubes. The tested concentrations of compound 9 were 156 nM, 312 nM, 625 nM, 1250 nM, 2500 nM and 5000 nM. As controls, 2 μL of DMSO (1% final concentration) were added to 2 other tubes. Cells were incubated for 30 min at 37° C. […] The cell suspension was aliquoted into a 96-well Reading Plate (Corning) in a volume of 90 μL (10^5 cells/well). […] After 15 sec of reading the basal level of fluorescence by FlexStation II, 10 μL of GROα or HBSS− were automatically transferred from the Compound Plate into the Reading Plate (final concentration of GROα was 25 nM). Changes in fluorescence were monitored (λex=485 nm, λem=525 nm) every 5 s for 240 to 500 s at room temperature.The maximum change in fluorescence, expressed in arbitrary units over baseline (Max-Min), was used to determine the GROα response. The effect of each compound on the GROα response was normalized and expressed as a percent of the DMSO control, which was designated as 100% response. […]

CC1(C)OB(c2ccccc2CNc2ccc(C(=O)Nc3ccc(F)cc3)cn2)OC1(C)C [USRE47740, Compound 7]
IC50: 1.5 µM
